Test results: PubChem BioAssay AID2060363 (Molecular Pharmacology Branch, DTP, NCI, 2025)

System: 156681-154-R-J1-PDC tumor spheroids, viability % test/control
Assay: Anticancer human tumor 156681-154-R-J1-PDC patient-derived melanoma cell line growth inhibition [TAK]
Details: spheroids with HUVEC and MSC; for IC50: curve of first compound; for viability, T/C: stronger effect = lower value
Summary of the method: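 Spheroids of 60% malignant cells, 25% HUVEC and 15% hMSC were exposed to targeted agents combined with TAK-243 or ipatasertib. Concentrations started at or near clinical Cmax (10 microM if unknown) and descended in half-log steps.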

[1] = second compound 0.3 µM, first compound 0.0316 µM
[2] = second compound 0.3 µM, first compound 0.1 µM
[3] = second compound 0.3 µM, first compound 0.316 µM
[4] = second compound 0.3 µM, first compound 1 µM
[5] = second compound 0.3 µM, first compound 3.16 µM
[6] = second compound 0.3 µM, first compound 10 µM
[7] = second compound 0.949 µM, first compound 0.0316 µM
[8] = second compound 0.949 µM, first compound 0.1 µM
[9] = second compound 0.949 µM, first compound 0.316 µM
[10] = second compound 0.949 µM, first compound 1 µM
[11] = second compound 0.949 µM, first compound 3.16 µM
[12] = second compound 0.949 µM, first compound 10 µM
[13] = second compound 3 µM, first compound 0.0316 µM
[14] = second compound 3 µM, first compound 0.1 µM
[15] = second compound 3 µM, first compound 0.316 µM
[16] = second compound 3 µM, first compound 1 µM
[17] = second compound 3 µM, first compound 3.16 µM
[18] = second compound 3 µM, first compound 10 µM
[19] = second compound 9.49 µM, first compound 0.0316 µM
[20] = second compound 9.49 µM, first compound 0.1 µM
[21] = second compound 9.49 µM, first compound 0.316 µM
[22] = second compound 9.49 µM, first compound 1 µM
[23] = second compound 9.49 µM, first compound 3.16 µM
[24] = second compound 9.49 µM, first compound 10 µM
[25] = second compound 30 µM, first compound 0.0316 µM
[26] = second compound 30 µM, first compound 0.1 µM
[27] = second compound 30 µM, first compound 0.316 µM
[28] = second compound 30 µM, first compound 1 µM
[29] = second compound 30 µM, first compound 3.16 µM
[30] = second compound 30 µM, first compound 10 µM
[31] = second compound 0.3 µM, first compound 0.000316 µM
[32] = second compound 0.3 µM, first compound 0.001 µM
[33] = second compound 0.3 µM, first compound 0.00316 µM
[34] = second compound 0.3 µM, first compound 0.01 µM
[35] = second compound 0.949 µM, first compound 0.000316 µM
[36] = second compound 0.949 µM, first compound 0.001 µM
[37] = second compound 0.949 µM, first compound 0.00316 µM
[38] = second compound 0.949 µM, first compound 0.01 µM
[39] = second compound 3 µM, first compound 0.000316 µM
[40] = second compound 3 µM, first compound 0.001 µM
[41] = second compound 3 µM, first compound 0.00316 µM
[42] = second compound 3 µM, first compound 0.01 µM
[43] = second compound 9.49 µM, first compound 0.000316 µM
[44] = second compound 9.49 µM, first compound 0.001 µM
[45] = second compound 9.49 µM, first compound 0.00316 µM
[46] = second compound 9.49 µM, first compound 0.01 µM
[47] = second compound 30 µM, first compound 0.000316 µM
[48] = second compound 30 µM, first compound 0.001 µM
[49] = second compound 30 µM, first compound 0.00316 µM
[50] = second compound 30 µM, first compound 0.01 µM
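Further: spheroids exposed to compounds for 7 days before the endpoint.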

`CC(C)(C)c1nc(-c2cccc(NS(=O)(=O)c3c(F)cccc3F)c2F)c(-c2ccnc(N)n2)s1` + CC(C)NCC(C(=O)N1CCN(c2ncnc3c2C(C)CC3O)CC1)c1ccc(Cl)cc1 showed an IC50 (second compound 0.3 µM) of 239 nM, an IC50 (second compound 0.949 µM) of 214 nM and an IC50 (second compound 3 µM) of 148 nM. The IC50 (second compound 9.49 µM) was < 31.6 nM, the IC50 (second compound 30 µM) was < 31.6 nM and the viability, T/C [1] was 103%. For the same molecule, the viability, T/C [2] was 90.7%, the viability, T/C [3] was 36.9% and the viability, T/C [4] was 14.5%. For the same molecule, the viability, T/C [5] was 11.9%, the viability, T/C [6] was 12.7% and the viability, T/C [7] was 90.1%. For the same molecule, the viability, T/C [8] was 79%, the viability, T/C [9] was 35.1% and the viability, T/C [10] was 12.7%. For the same molecule, the viability, T/C [11] was 8.47%, the viability, T/C [12] was 8.82% and the viability, T/C [13] was 67.6%. It also gave a viability, T/C [14] of 62.4%, a viability, T/C [15] of 26.1% and a viability, T/C [16] of 7.91%. For the same molecule, the viability, T/C [17] was 5.22%, the viability, T/C [18] was 6.48% and the viability, T/C [19] was 40.1%. The viability, T/C [20] was 31.7%, the viability, T/C [21] was 17.3% and the viability, T/C [22] was 6.56%. For the same molecule, the viability, T/C [23] was 3.41%, the viability, T/C [24] was 3.45% and the viability, T/C [25] was 15.6%. The viability, T/C [26] was 13%, the viability, T/C [27] was 7.77% and the viability, T/C [28] was 2.12%. For the same molecule, the viability, T/C [29] was 1.1% and the viability, T/C [30] was 1.52%.

For `CC(C)CC(NC(=O)CNC(=O)c1cc(Cl)ccc1Cl)B1OC(=O)CC(CC(=O)O)(C(=O)O)O1` (stereo not given) + CC(C)NCC(C(=O)N1CCN(c2ncnc3c2C(C)CC3O)CC1)c1ccc(Cl)cc1, the IC50 (second compound 0.3 µM) was 18 nM, the IC50 (second compound 0.949 µM) was 17.1 nM and the IC50 (second compound 3 µM) was 12.2 nM. The IC50 (second compound 9.49 µM) was < 0.316 nM, the IC50 (second compound 30 µM) was < 0.316 nM and the viability, T/C [31] was 96.8%. For the same molecule, the viability, T/C [32] was 86.9%, the viability, T/C [33] was 94.9% and the viability, T/C [34] was 88%. For the same molecule, the viability, T/C [1] was 13.8%, the viability, T/C [2] was 0.27% and the viability, T/C [35] was 88.7%. The viability, T/C [36] was 87.7%, the viability, T/C [37] was 90.2% and the viability, T/C [38] was 82.1%. The viability, T/C [7] was 13.2%, the viability, T/C [8] was 0.34% and the viability, T/C [39] was 79.4%. The viability, T/C [40] was 76.9%, the viability, T/C [41] was 78.9% and the viability, T/C [42] was 58.8%. It also gave a viability, T/C [13] of 8.09%, a viability, T/C [14] of 0.23% and a viability, T/C [43] of 43.3%. For the same molecule, the viability, T/C [44] was 41.5%, the viability, T/C [45] was 42% and the viability, T/C [46] was 40.9%. For the same molecule, the viability, T/C [19] was 4.19%, the viability, T/C [20] was 0.25% and the viability, T/C [47] was 17.5%. The viability, T/C [48] was 20.3%, the viability, T/C [49] was 18.5% and the viability, T/C [50] was 15.4%. The viability, T/C [25] was 2.17% and the viability, T/C [26] was 0.28%.

`CC(C)n1nc(-c2ccc3oc(N)nc3c2)c2c(N)ncnc21` + CC(C)NCC(C(=O)N1CCN(c2ncnc3c2C(C)CC3O)CC1)c1ccc(Cl)cc1 gave an IC50 (second compound 0.3 µM) of 26 nM, an IC50 (second compound 0.949 µM) of 12.5 nM and an IC50 (second compound 3 µM) of 2.4 nM. The IC50 (second compound 9.49 µM) was < 0.316 nM, the IC50 (second compound 30 µM) was < 0.316 nM and the viability, T/C [31] was 94.5%. It also gave a viability, T/C [32] of 91.8%, a viability, T/C [33] of 84.1% and a viability, T/C [34] of 69.4%. The viability, T/C [1] was 45.9%, the viability, T/C [2] was 25.2% and the viability, T/C [35] was 83.4%. The viability, T/C [36] was 85.4%, the viability, T/C [37] was 63.8% and the viability, T/C [38] was 58.6%. For the same molecule, the viability, T/C [7] was 32.1%, the viability, T/C [8] was 20% and the viability, T/C [39] was 65.4%. For the same molecule, the viability, T/C [40] was 57.3%, the viability, T/C [41] was 46.2% and the viability, T/C [42] was 38.3%. For the same molecule, the viability, T/C [13] was 19.7%, the viability, T/C [14] was 11% and the viability, T/C [43] was 39.9%. For the same molecule, the viability, T/C [44] was 33.4%, the viability, T/C [45] was 23.3% and the viability, T/C [46] was 16.3%. For the same molecule, the viability, T/C [19] was 11%, the viability, T/C [20] was 4.26% and the viability, T/C [47] was 15.5%. The viability, T/C [48] was 14.4%, the viability, T/C [49] was 12.3% and the viability, T/C [50] was 7.31%. The viability, T/C [25] was 3.39% and the viability, T/C [26] was 1.21%.

In the case of `CCCS(=O)(=O)Nc1ccc(F)c(C(=O)c2c[nH]c3ncc(-c4ccc(Cl)cc4)cc23)c1F` + CC(C)NCC(C(=O)N1CCN(c2ncnc3c2C(C)CC3O)CC1)c1ccc(Cl)cc1, the IC50 (second compound 0.3 µM) is reported as 8190 nM, the IC50 (second compound 0.949 µM) is reported as 7510 nM and the IC50 (second compound 3 µM) is reported as 3820 nM. The IC50 (second compound 9.49 µM) was < 316 nM, the IC50 (second compound 30 µM) was < 316 nM and the viability, T/C [3] was 104%. It also gave a viability, T/C [4] of 111%, a viability, T/C [5] of 103% and a viability, T/C [6] of 24.5%. For the same molecule, the viability, T/C (second compound 0.3 µM, first compound 31.6 µM) was 0.49%, the viability, T/C (second compound 0.3 µM, first compound 100 µM) was 91.8% and the viability, T/C [9] was 89.5%. It also gave a viability, T/C [10] of 101%, a viability, T/C [11] of 85.2% and a viability, T/C [12] of 15.7%. It also gave a viability, T/C (second compound 0.949 µM, first compound 31.6 µM) of 16.6%, a viability, T/C (second compound 0.949 µM, first compound 100 µM) of 82.9% and a viability, T/C [15] of 83%. The viability, T/C [16] was 72.8%, the viability, T/C [17] was 58.8% and the viability, T/C [18] was 6.57%. It also gave a viability, T/C (second compound 3 µM, first compound 31.6 µM) of 3.37%, a viability, T/C (second compound 3 µM, first compound 100 µM) of 3.64% and a viability, T/C [21] of 41.6%. The viability, T/C [22] was 42.8%, the viability, T/C [23] was 36.5% and the viability, T/C [24] was 1.52%. It also gave a viability, T/C (second compound 9.49 µM, first compound 31.6 µM) of 0.38%, a viability, T/C (second compound 9.49 µM, first compound 100 µM) of 0.73% and a viability, T/C [27] of 19.2%. It also gave a viability, T/C [28] of 19.2%, a viability, T/C [29] of 4.74% and a viability, T/C [30] of 0.42%. For the same molecule, the viability, T/C (second compound 30 µM, first compound 31.6 µM) was 0.39% and the viability, T/C (second compound 30 µM, first compound 100 µM) was 0.5%.
